# Source: US8388986B2, “Use of cationic surfactants in cosmetic preparations” (priority 2001, dated 2013)
# Columns and labels:
# [1] = test system: Enterobacter aerogenes CECT 689; assay: minimum inhibitory concentration; format: cell-based; settings: Gram − Bacteria
# [2] = test system: Serratia marcenses CECT 274; assay: minimum inhibitory concentration; format: cell-based; settings: Gram − Bacteria
# [3] = test system: Micrococcus luteus ATCC 9631; assay: minimum inhibitory concentration; format: cell-based; settings: Gram + Bacteria
# [4] = test system: Staphylococcus aureus ATCC 6538; assay: minimum inhibitory concentration; format: cell-based; settings: Gram + Bacteria
# [5] = test system: Bordetella bronchiseptica ATCC 4617; assay: minimum inhibitory concentration; format: cell-based; settings: Gram − Bacteria
# [6] = test system: Chaetonium globosum ATCC 6205; assay: minimum inhibitory concentration; format: cell-based; settings: Fungi
# [7] = test system: Candida albicans ATCC 10231; assay: minimum inhibitory concentration; format: cell-based; settings: Yeast
# [8] = test system: Aureobasidium pullulans ATCC 9348; assay: minimum inhibitory concentration; format: cell-based; settings: Fungi
# [9] = test system: Lactobacillus delbrueckii ssp lactis CECT 372; assay: minimum inhibitory concentration; format: cell-based; settings: Gram + Bacteria
# [10] = test system: Bacillus cereus var mycoide ATCC 11778; assay: minimum inhibitory concentration; format: cell-based; settings: Gram + Bacteria
# [11] = test system: Listeria monocytogenes ATCC 7644; assay: minimum inhibitory concentration; format: cell-based; settings: Gram + Bacteria
# [12] = test system: Arthrobacter oxydans ATCC 8010; assay: minimum inhibitory concentration; format: cell-based; settings: Gram + Bacteria
# [13] = test system: Bacillus subtilis ATCC 6633; assay: minimum inhibitory concentration; format: cell-based; settings: Gram + Bacteria
# [14] = test system: Clostridium perfringens ATCC 77454; format: cell-based; settings: Gram + Bacteria
# [15] = test system: Alcaligenes faecalis ATCC 8750; assay: minimum inhibitory concentration; format: cell-based; settings: Gram − Bacteria
# [16] = test system: Salmonella typhimurium ATCC 16028; assay: minimum inhibitory concentration; format: cell-based; settings: Gram − Bacteria
# Escherichia coli 0157H7 = assay: minimum inhibitory concentration; format: cell-based; settings: Gram − Bacteria
# Fungi = assay: preservative efficacy (Antimicrobial Effectiveness Testing USP 24th Edition) in cosmetic formulations; format: cell-based, Aspergillus niger ATCC 16404; settings: 0.20 g of LAE
# Procedure: (§1) This assay consists of the contamination of the protecting formulations with an inoculum mixture of 10^8 cfu/mL concentration, for each of the microorganisms, and the determination of the number of viable cells in the time. This inoculum mixture is composed of the following microorganisms:
# (§2) The cosmetic composition to be analysed is divided into sterile containers with 50 g of product for each flask. Each container is inoculated with 0.5 mL of inoculum (10^8 cfu/mL). The target concentration is 10^6 cfu/mL, approximately. All the containers are kept at a temperature between 20-25° C. and are protected from light.
# (§3) The level of the microbial contamination is checked at 0 hours, 7 days, 14 days and 28 days. The number of colonies is evaluated by dilution in buffer peptone with the appropriate neutraliser agent of the preservative. The culture media used for counting the microorganisms are: Soya triptone (35-37° C., 48 hours) for the determination of bacteria; Sabouraud agar with chloramphenicol for fungi and yeast (25° C., 3-5 days).
# (§4) According to Antimicrobial Effectiveness Testing USP 24th Edition, 1999 (pp. 1809-1811), an antimicrobial preservative is considered to be effective in topically used products made with aqueous bases or vehicles, non-sterile nasal products and emulsions, including those applied to mucous membranes, if: • Not less than 2.0 logarithm reduction from the initial calculated bacteria's count is reached at 14 days and no increase from the 14 days' count at 28 days is detected; and • No increase from the initial calculated count of yeast and moulds is observed.
# [17] = test system: Saccharomyces cerevisiae ATCC 9763; assay: minimum inhibitory concentration; format: cell-based; settings: Yeast
# inoculum mixture = assay: preservative efficacy (Antimicrobial Effectiveness Testing USP 24th Edition), 28 days' check; format: cell-based; settings: 0.20 g of LAE
# Procedure: as §1, §2, §3, §4
# [18] = test system: Rhodotorula rubra CECT 1158; assay: minimum inhibitory concentration; format: cell-based; settings: Yeast
# [19] = test system: Proteus mirabilis CECT 170; assay: minimum inhibitory concentration; format: cell-based; settings: Gram − Bacteria
# [20] = test system: Citrobacter freundii ATCC 22636; assay: minimum inhibitory concentration; format: cell-based; settings: Gram − Bacteria
structure (smiles),measurement,setting,value
"CCCCCCCCCCCC(=O)N[C@@H](CCCN=C(N)N)C(=O)OCC.Cl [LAE, ethyl ester of the lauramide of the arginine monohydrochloride]",M.I.C.,[1],32 ppm
same,M.I.C.,[2],32 ppm
same,M.I.C.,[3],128 ppm
same,M.I.C.,[4],32 ppm
same,M.I.C.,[5],128 ppm
same,M.I.C.,[6],16 ppm
same,M.I.C.,[7],16 ppm
same,M.I.C.,[8],16 ppm
same,M.I.C.,[9],16 ppm
same,M.I.C.,[10],32 ppm
same,M.I.C.,[11],10 ppm
same,M.I.C.,[12],64 ppm
same,M.I.C.,[13],16 ppm
same,M.I.C.,[14],16 ppm
same,M.I.C.,[15],64 ppm
same,M.I.C.,[16],32 ppm
same,M.I.C.,Escherichia coli 0157H7,20 ppm
same,viable count With LAE,"Fungi; Example 1, oil-in-water emulsion with non-ionic surfactant, 7 days",<9.9 · 10^1 cfu/mL
same,viable count With LAE,"Fungi; Example 1, oil-in-water emulsion with non-ionic surfactant, 14 days",<9.9 · 10^1 cfu/mL
same,viable count With LAE,"Fungi; Example 1, oil-in-water emulsion with non-ionic surfactant, Initial",1.7 · 10^4 cfu/mL
same,viable count With LAE,"Fungi; Example 2, oil-in-water emulsion with an ionic emulsifier, 7 days",<9.9 · 10^1 cfu/mL
same,viable count With LAE,"Fungi; Example 2, oil-in-water emulsion with an ionic emulsifier, 14 days",<9.9 · 10^1 cfu/mL
same,viable count With LAE,"Fungi; Example 2, oil-in-water emulsion with an ionic emulsifier, Initial",1.4 · 10^4 cfu/mL
same,viable count With LAE,"Fungi; Example 3, water in oil emulsion with non-ionic emulsifiers, 7 days",<9.9 · 10^1 cfu/mL
same,viable count With LAE,"Fungi; Example 3, water in oil emulsion with non-ionic emulsifiers, 14 days",<9.9 · 10^1 cfu/mL
same,viable count With LAE,"Fungi; Example 3, water in oil emulsion with non-ionic emulsifiers, Initial",1.0 · 10^4 cfu/mL
same,viable count With LAE,"Fungi; Example 4, aqueous solution with a surfactants' mixture (bath gels, disodium cocoamfoacetate), 7 days",2.7 · 10^2 cfu/mL
same,viable count With LAE,"Fungi; Example 4, aqueous solution with a surfactants' mixture (bath gels, disodium cocoamfoacetate), 14 days",<9.9 · 10^1 cfu/mL
same,viable count With LAE,"Fungi; Example 4, aqueous solution with a surfactants' mixture (bath gels, disodium cocoamfoacetate), Initial",1.9 · 10^4 cfu/mL
same,viable count With LAE,"Fungi; Example 5, aqueous solution with a surfactants' mixture (bath gels, disodium lauryl sulfosuccinate), 7 days",<9.9 · 10^1 cfu/mL
same,viable count With LAE,"Fungi; Example 5, aqueous solution with a surfactants' mixture (bath gels, disodium lauryl sulfosuccinate), 14 days",<9.9 · 10^1 cfu/mL
same,viable count With LAE,"Fungi; Example 5, aqueous solution with a surfactants' mixture (bath gels, disodium lauryl sulfosuccinate), Initial",1.4 · 10^4 cfu/mL
same,viable count With LAE,"Fungi; Example 6, hydroalcoholic gel (after-shaving lotions), 7 days",4.1 · 10^2 cfu/mL
same,viable count With LAE,"Fungi; Example 6, hydroalcoholic gel (after-shaving lotions), 14 days",<9.9 · 10^1 cfu/mL
same,viable count With LAE,"Fungi; Example 6, hydroalcoholic gel (after-shaving lotions), Initial",9.1 · 10^4 cfu/mL
same,viable count With LAE,"Fungi; Example 7, facial tonic, 7 days",1.3 · 10^2 cfu/mL
same,viable count With LAE,"Fungi; Example 7, facial tonic, 14 days",<9.9 · 10^1 cfu/mL
same,viable count With LAE,"Fungi; Example 7, facial tonic, Initial",2.1 · 10^4 cfu/mL
same,viable count With LAE,"Fungi; Example 8, mask-up cleaner, 7 days",3.5 · 10^2 cfu/mL
same,viable count With LAE,"Fungi; Example 8, mask-up cleaner, 14 days",<9.9 · 10^1 cfu/mL
same,viable count With LAE,"Fungi; Example 8, mask-up cleaner, Initial",7.6 · 10^4 cfu/mL
same,viable count With LAE,"Fungi; Example 9, fluid oil-in-water emulsion with non-ionic surfactants (body oil), 7 days",1.4 · 10^2 cfu/mL
same,viable count With LAE,"Fungi; Example 9, fluid oil-in-water emulsion with non-ionic surfactants (body oil), 14 days",<9.9 · 10^1 cfu/mL
same,viable count With LAE,"Fungi; Example 9, fluid oil-in-water emulsion with non-ionic surfactants (body oil), Initial",7.6 · 10^4 cfu/mL
same,viable count With LAE,"Fungi; Example 10, toothpaste formulation, 7 days",1.6 · 10^2 cfu/mL
same,viable count With LAE,"Fungi; Example 10, toothpaste formulation, 14 days",<9.9 · 10^1 cfu/mL
same,viable count With LAE,"Fungi; Example 10, toothpaste formulation, Initial",5.6 · 10^4 cfu/mL
same,viable count With LAE,"Fungi; Example 11, aqueous solution with surfactants (shampoos), 7 days",1.1 · 10^2 cfu/mL
same,viable count With LAE,"Fungi; Example 11, aqueous solution with surfactants (shampoos), 14 days",<9.9 · 10^1 cfu/mL
same,viable count With LAE,"Fungi; Example 11, aqueous solution with surfactants (shampoos), Initial",9.6 · 10^4 cfu/mL
same,viable count With LAE,"Fungi; Example 12, oil-in-water emulsion with non-ionic surfactants (face cream), 7 days",8.7 · 10^2 cfu/mL
same,viable count With LAE,"Fungi; Example 12, oil-in-water emulsion with non-ionic surfactants (face cream), 14 days",<9.9 · 10^1 cfu/mL
same,viable count With LAE,"Fungi; Example 12, oil-in-water emulsion with non-ionic surfactants (face cream), Initial",1.7 · 10^4 cfu/mL
same,viable count With LAE,"Fungi; Example 13, oil-in-water emulsion with non-ionic surfactants (sun protector, polysorbate 60), 7 days",2.7 · 10^2 cfu/mL
same,viable count With LAE,"Fungi; Example 13, oil-in-water emulsion with non-ionic surfactants (sun protector, polysorbate 60), 14 days",<9.9 · 10^1 cfu/mL
same,viable count With LAE,"Fungi; Example 13, oil-in-water emulsion with non-ionic surfactants (sun protector, polysorbate 60), Initial",4.9 · 10^4 cfu/mL
same,viable count With LAE,"Fungi; Example 14, oil-in-water emulsion with non-ionic surfactants (sun protector, cetyl dimethicone copolyol), 7 days",6.7 · 10^2 cfu/mL
same,viable count With LAE,"Fungi; Example 14, oil-in-water emulsion with non-ionic surfactants (sun protector, cetyl dimethicone copolyol), 14 days",<9.9 · 10^1 cfu/mL
same,viable count With LAE,"Fungi; Example 14, oil-in-water emulsion with non-ionic surfactants (sun protector, cetyl dimethicone copolyol), Initial",5.3 · 10^4 cfu/mL
same,viable count With LAE,"Fungi; Example 15, emulsion for hands care, 7 days",8.7 · 10^2 cfu/mL
same,viable count With LAE,"Fungi; Example 15, emulsion for hands care, 14 days",<9.9 · 10^1 cfu/mL
same,viable count With LAE,"Fungi; Example 15, emulsion for hands care, Initial",5.8 · 10^4 cfu/mL
same,M.I.C.,[17],32 ppm
same,count at 28 days against the 14 days' count,"inoculum mixture; Example 1, oil-in-water emulsion with non-ionic surfactant",no increase
same,count at 28 days against the 14 days' count,"inoculum mixture; Example 2, oil-in-water emulsion with an ionic emulsifier",no increase
same,count at 28 days against the 14 days' count,"inoculum mixture; Example 3, water in oil emulsion with non-ionic emulsifiers",no increase
same,count at 28 days against the 14 days' count,"inoculum mixture; Example 4, aqueous solution with a surfactants' mixture (bath gels, disodium cocoamfoacetate)",no increase
same,count at 28 days against the 14 days' count,"inoculum mixture; Example 5, aqueous solution with a surfactants' mixture (bath gels, disodium lauryl sulfosuccinate)",no increase
same,count at 28 days against the 14 days' count,"inoculum mixture; Example 6, hydroalcoholic gel (after-shaving lotions)",no increase
same,count at 28 days against the 14 days' count,"inoculum mixture; Example 7, facial tonic",no increase
same,count at 28 days against the 14 days' count,"inoculum mixture; Example 8, mask-up cleaner",no increase
same,count at 28 days against the 14 days' count,"inoculum mixture; Example 9, fluid oil-in-water emulsion with non-ionic surfactants (body oil)",no increase
same,count at 28 days against the 14 days' count,"inoculum mixture; Example 10, toothpaste formulation",no increase
same,count at 28 days against the 14 days' count,"inoculum mixture; Example 11, aqueous solution with surfactants (shampoos)",no increase
same,count at 28 days against the 14 days' count,"inoculum mixture; Example 12, oil-in-water emulsion with non-ionic surfactants (face cream)",no increase
same,count at 28 days against the 14 days' count,"inoculum mixture; Example 13, oil-in-water emulsion with non-ionic surfactants (sun protector, polysorbate 60)",no increase
same,count at 28 days against the 14 days' count,"inoculum mixture; Example 14, oil-in-water emulsion with non-ionic surfactants (sun protector, cetyl dimethicone copolyol)",no increase
same,count at 28 days against the 14 days' count,"inoculum mixture; Example 15, emulsion for hands care",no increase
same,M.I.C.,[18],16 ppm
same,M.I.C.,[19],32 ppm
same,M.I.C.,[20],64 ppm
